Laboratory results reported in patent US6599920B2, “Naphthalene compounds, intermediates, formulations, and methods” (Eli Lilly and Company, priority 1996, dated 2003).
Marks after values point to notes of the source that are not given here.

What was measured:
ovariectomized rats = assay: Ovariectomized rat model of postmenopausal hyperlipidemia (serum cholesterol, uterine weight, uterine eosinophil peroxidase); format: in vivo
Description: Experimental models of postmenopausal hyperlipidemia are known in the art. […] to this invention is the ovariectomized rat model which is detailed in U.S. Pat. No. 5,464,845. Data presented in Table 1 show comparative results among ovariectomized rats, rats treated with 17-α-ethynyl estradiol (EE2), and rats treated with certain compounds of this invention. […] This uterine response to estrogen is well recognized in the art. As expressed in the data below, estrogenicity also was assessed by evaluating the response of eosinophil infiltration into the uterus. […] The data presented in Table 1 reflect the response per treatment group. In accordance with the above procedures, compounds of the present invention and ethynyl estradiol (EE2) in 20% hydroxypropyl β-cyclodextrin are orally administered to test animals.

[1] = test system: MCF-7 breast adenocarcinoma cells; assay: MCF-7 Proliferation Assay; format: cell-based; settings: Homo sapiens, MCF7; MCF-7 cells, 48 hours with drug; read-out: IC50, inhibition of tumor cell growth (tritiated thymidine uptake)
Description: MCF-7 breast adenocarcinoma cells (ATCC HTB 22) were maintained in MEM (minimal essential medium, phenol red-free, Sigma, St. Louis, Mo.) supplimented with 10% fetal bovine serum (FBS) (V/V), L-glutamine (2 mM), sodium pyruvate (1 mM), HEPES {(N-[2-hydroxyethyl]piperazine-N′-[2-ethanesulfonic acid]10 mm}, non-essential amino acids and bovine insulin (1 ug/mL) (maintenance medium). Ten days prior to assay, MCF-7 cells were switched to maintenance medium supplemented with 10% dextran coated charcoal stripped fetal bovine serum (DCC-FBS) assay medium) in place of 10% FBS to deplete internal stores of steroids. MCF-7 cells were removed from maintenance flasks using cell dissociation medium (Ca++/Mg++ free HBSS (phenol red-free) supplemented with 10 mM HEPES and 2 mM EDTA). Cells were washed twice with assay medium and adjusted to 80,000 cells/mL. Approximately […] (8,000 cells) were added to flat-bottom microculture wells (Costar 3596) and incubated at 37° C. in a 5% CO2 humidified incubator for 48 hours to allow for cell adherence and equilibration after transfer. Serial dilutions of drugs or DMSO as a diluent control were prepared in assay medium and […] to triplicate microcultures […]. […] Samples were counted by liquid scintillation using a Wallac BetaPlace β counter. […]

[2] = 0.1 mg/kg PO, in 20% hydroxypropyl β-cyclodextrin

**Q.** With `C#C[C@]1(O)CC[C@H]2[C@@H]3CCc4cc(O)ccc4[C@H]3CC[C@@]21C` [EE2, 17-α-Ethynyl-estradiol, reference compound] as the molecule, how does the “Serum cholesterol (% Dec.), decrease versus ovariectomized controls” value (ovariectomized rats; 0.1 mg/kg PO) read?
**A.** 87.5* %

**Q.** What about the “Uterine EPO (Vmax), eosinophil peroxidase” value (“Uterine EPO (Vmax)” below) (ovariectomized rats; 0.1 mg/kg PO) of the same molecule?
**A.** 133.8*

**Q.** And the “Uterine Wt. (% Inc.), uterine weight % increase versus the ovariectomized controls” value (ovariectomized rats; [2])?
**A.** 128.0* %

**Q.** And the “Effect on serum cholesterol” value (ovariectomized rats; oral, compared to ovariectomized animals)?
**A.** caused a decrease in serum cholesterol

**Q.** And the “Effect on uterine weight” value (ovariectomized rats; oral, compared to ovariectomized animals or EE2)?
**A.** substantially greater than the uterine weight of the ovariectomized animals

**Q.** What about the “Eosinophil infiltration into the uterus” value (ovariectomized rats; oral, stromal layer of uteri) of the same molecule?
**A.** substantial and expected increase in eosinophil infiltration

**Q.** `COc1cccc(-c2ccc3cc(OC)ccc3c2Cc2ccc(OCCN3CCCCC3)cc2)c1.Cl` [Ex. 1, [2-(3-Methoxyphenyl)-6-methoxynaphthalen-1-yl][4-[2-(1-piperidinyl)ethoxy]phenyl]methane Hydrochloride] was tested. Which “Serum cholesterol (% Dec.), decrease versus ovariectomized controls” value (ovariectomized rats; 0.1 mg/kg PO) did it give?
**A.** 68.4* %

**Q.** What about the “Uterine EPO (Vmax)” value (ovariectomized rats; 0.1 mg/kg PO) of the same molecule?
**A.** 7.5

**Q.** And the “Uterine Wt. (% Inc.), uterine weight % increase versus the ovariectomized controls” value (ovariectomized rats; [2])?
**A.** 30.9* %

**Q.** What about the “Serum cholesterol (% Dec.), decrease versus ovariectomized controls” value (ovariectomized rats; 1 mg/kg PO) of the same molecule?
**A.** 74.1* %

**Q.** And the “Uterine EPO (Vmax)” value (ovariectomized rats; 1 mg/kg PO)?
**A.** 5.4

**Q.** And the “Uterine Wt. (% Inc.), uterine weight % increase versus the ovariectomized controls” value (ovariectomized rats; 1 mg/kg PO)?
**A.** 31.6* %

**Q.** What about the “Serum cholesterol (% Dec.), decrease versus ovariectomized controls” value (ovariectomized rats; 10 mg/kg PO) of the same molecule?
**A.** 65.0* %

**Q.** What about the “Uterine EPO (Vmax)” value (ovariectomized rats; 10 mg/kg PO) of the same molecule?
**A.** 6.0

**Q.** What about the “Uterine Wt. (% Inc.), uterine weight % increase versus the ovariectomized controls” value (ovariectomized rats; 10 mg/kg PO) of the same molecule?
**A.** 37.2* %

**Q.** What about the IC50 [1] of the same molecule?
**A.** 0.1 nM

**Q.** With `Cl.Oc1cccc(-c2ccc3cc(O)ccc3c2Cc2ccc(OCCN3CCCCC3)cc2)c1` [Ex. 2, [2-(3-Hydroxyphenyl)-6-hydroxynaphthalen-1-yl][4-[2-(1-piperidinyl)ethoxy]phenyl]methane Hydrochloride] as the molecule, how does the “Serum cholesterol (% Dec.), decrease versus ovariectomized controls” value (ovariectomized rats; 0.1 mg/kg PO) read?
**A.** 6.6%

**Q.** And the “Uterine EPO (Vmax)” value (ovariectomized rats; 0.1 mg/kg PO)?
**A.** 4.8

**Q.** And the “Uterine Wt. (% Inc.), uterine weight % increase versus the ovariectomized controls” value (ovariectomized rats; [2])?
**A.** 37.6* %

**Q.** What about the “Serum cholesterol (% Dec.), decrease versus ovariectomized controls” value (ovariectomized rats; 1 mg/kg PO) of the same molecule?
**A.** 28.6%

**Q.** What about the “Uterine EPO (Vmax)” value (ovariectomized rats; 1 mg/kg PO) of the same molecule?
**A.** 4.8

**Q.** What about the “Uterine Wt. (% Inc.), uterine weight % increase versus the ovariectomized controls” value (ovariectomized rats; 1 mg/kg PO) of the same molecule?
**A.** 44.7* %

**Q.** And the “Serum cholesterol (% Dec.), decrease versus ovariectomized controls” value (ovariectomized rats; 10 mg/kg PO)?
**A.** 46.6* %

**Q.** And the “Uterine EPO (Vmax)” value (ovariectomized rats; 10 mg/kg PO)?
**A.** 4.8

**Q.** What about the “Uterine Wt. (% Inc.), uterine weight % increase versus the ovariectomized controls” value (ovariectomized rats; 10 mg/kg PO) of the same molecule?
**A.** 28.1* %
